Assay results taken from patent publication US20240390295A1, “METHODS FOR TREATING DEPRESSION” (JANSSEN PHARMACEUTICA NV, priority 2020, published 2024).
Values joined by “and” are separate entries in the source; they are usually repeats but may differ in a detail not shown here. Equal values may be shown once.

Tested on: adult patients (aged 18-64 years) with TRD
Test: Clinician-reported adverse events: incidence and recurrence by Week 1/Week 4 frequency, pooled studies 1 and 2 (ESK + OAD)
Type: in vivo, human
Source text: Data were pooled from adult patients (aged 18-64 years) with TRD. Patients had recurrent or single-episode (>2 years) MDD (DSM-5), a Clinician-Rated Inventory of Depressive Symptomatology score of >3 and a total Montgomery-Åsberg Depression Rating Scale (MADRS) score of >2. At screening, depressive symptoms had been non-responsive to adequate trials of ≥1 and ≤5 commercially available OAD in the current depressive episode. Non response was further confirmed by a prospective trial of a different OAD lasting ≥4 weeks and during the screening phase.
In brief, study 1 was a double-blind, placebo-controlled relapse prevention trial comparing the efficacy of ESK versus placebo nasal spray, both in conjunction with a Food and Drug Administration (FDA)-approved OAD, in delaying relapse of depressive symptoms in patients with TRD who were either in stable remission or stable response after four months' treatment with ESK in conjunction with a FDA-approved OAD. Study 2 was an open-label, multicenter study that assessed the long-term safety and efficacy of ESK in conjunction with an FDA-approved OAD in patients with TRD.
The analysis was limited to the two doses of ESK (56 mg and 84 mg) approved for use by the FDA for patients with TRD. Patients received ESK (56 or 84 mg) in conjunction with an OAD twice weekly during the induction phase (Weeks 1-4); once weekly during Weeks 5-8 of the optimization phase: either once weekly or every other week during the remainder of the 12-week optimization phase and the maintenance phase (individualized according to the severity of depressive symptoms [MADRS total score≤/>12] and tolerability).
Patients were monitored for >90 minutes after ESK administration at each treatment session, after which time they could leave the clinical site at the clinician's discretion. AEs were monitored and reported, and safety assessments, including clinical laboratory tests and physical examinations, were conducted throughout the study. Clinician-reported AEs were categorized as mild, moderate, or severe based on clinical judgement (Table 1).
This analysis included any treatment sessions in which patients received ESK (either open-label or blinded). The occurrence and severity of AEs were assessed within the following timeframes: Month 1 (Week 1 and Weeks 2-4), Month 2 (Weeks 5-8), Months 3-6 and Months 6-12. Severity of clinician-reported AEs were scored as 0 (no AE), 1 (mild), 2 (moderate), and 3 (severe). To examine AEs in individual patients over time, only patients who received at least one ESK dose in the following period were included in the analyses of each respective period. Thus, patient data were retained in (i) Week 1 if the patient received ≥1 ESK dose in Weeks 2-4, (ii) Weeks 2-4 if the patient received ≥1 ESK dose in Weeks 5-8, (iii) Weeks 5-8 if the patient received ≥1 ESK dose in Months 3-6, and (iv) Months 3-6 if the patient received ≥1 ESK dose in Months 6-12.
The five most commonly reported treatment-emergent events occurring with ESK plus OAD therapy (dissociation, dizziness, nausea, sedation, and vertigo) were evaluated, each of which has an incidence ≥5% and at least a 2-fold greater incidence than with placebo plus an OAD. 14 Increases in BP were also examined.
Week 1 and Week 4 were set a priori as index weeks because they are the beginning and end of the induction period. Frequencies and maximum-reported severities of AEs reported during these index weeks served as stratifying variables by which to examine recurrence and severities of AE recurrences in future timeframes.

[1] = Months 3-6, overall rate for timeframe
[2] = Months 6-12, AE twice in Week 1
[3] = Months 6-12, overall rate for timeframe
[4] = Week 1, overall rate for timeframe
[5] = Weeks 2-4, overall rate for timeframe
[6] = Weeks 5-8, overall rate for timeframe
[7] = human, in vivo, other: nasal spray, 1 week

## CN[C@]1(c2ccccc2Cl)CCCCC1=O [esketamine, (S)-2-(2-chlorophenyl)-2-(methylamino)cyclohexanone]
8 participants who had vomiting twice during week 1
  vomiting during later periods: none experienced vomiting during later periods
AE not reported in week 1
  participants experiencing an AE after any subsequent treatment session: < 10%
Months 3-6, AE once in Week 1
  Clinician-reported dissociation: 26.2%
  Clinician-reported increased blood pressure: 36.4%
  Clinician-reported sedation: 0%
  Dizziness: 31.2%
  Nausea: 20.8%
  Vertigo: 28.6%
Months 3-6, AE twice in Week 1
  Clinician-reported dissociation: 61.1%
  Clinician-reported increased blood pressure: 40.0%
  Clinician-reported sedation: 36.4%
  Dizziness: 53.0%
  Nausea: 33.3%
  Vertigo: 59.5%
Months 3-6, No AE in Week 1
  Clinician-reported dissociation: 7.6%
  Clinician-reported increased blood pressure: 3.0%
  Clinician-reported sedation: 3.0%
  Dizziness: 7.5%
  Nausea: 4.5%
  Vertigo: 3.4%
Months 3-6, None in Week 1
  Anxiety: 1.2%
  Feeling Drunk: 0.2%
  Hypoesthesia: 2.5%
  Lethargy: 0.2%
  Vomiting: 1.9%
Months 3-6, Once in Week 1
  Anxiety: 10.0%
  Feeling Drunk: 16.7%
  Hypoesthesia: 20.7%
  Lethargy: 40.0%
  Vomiting: 21.1%
Months 3-6, Overall
  Anxiety: 1.5%
  Feeling Drunk: 1.5%
  Hypoesthesia: 5.2%
  Lethargy: 0.5%
  Vomiting: 2.5%
Months 3-6, Twice in Week 1
  Anxiety: 50.0%
  Feeling Drunk: 100.0%
  Hypoesthesia: 73.3%
  Lethargy: 0%
  Vomiting: 0%
[1]
  Clinician-reported dissociation: 14.4%
  Clinician-reported increased blood pressure: 4.2%
  Clinician-reported sedation: 3.5%
  Dizziness: 15.6%
  Nausea: 7.2%
  Vertigo: 8.2%
Months 6-12, AE once in Week 1
  Clinician-reported dissociation: 18.5%
  Clinician-reported increased blood pressure: 9.1%
  Clinician-reported sedation: 0%
  Dizziness: 20.8%
  Nausea: 18.2%
  Vertigo: 23.8%
[2]
  Clinician-reported dissociation: 33.3%
  Clinician-reported increased blood pressure: 20.0%
  Clinician-reported sedation: 45.5%
  Dizziness: 21.2%
  Nausea: 8.3%
  Vertigo: 38.1%
Months 6-12, No AE in Week 1
  Clinician-reported dissociation: 4.6%
  Clinician-reported increased blood pressure: 1.7%
  Clinician-reported sedation: 1.7%
  Dizziness: 4.0%
  Nausea: 4.9%
  Vertigo: 1.7%
Months 6-12, None in Week 1
  Anxiety: 2.1%
  Feeling Drunk: 0.2%
  Hypoesthesia: 1.6%
  Lethargy: 1.6%
  Vomiting: 1.9%
Months 6-12, Once in Week 1
  Anxiety: 0%
  Feeling Drunk: 33.3%
  Hypoesthesia: 13.8%
  Lethargy: 0%
  Vomiting: 10.5%
Months 6-12, Overall
  Anxiety: 2.2%
  Feeling Drunk: 1.5%
  Hypoesthesia: 3.2%
  Lethargy: 0.2%
  Vomiting: 2.2%
Months 6-12, Twice in Week 1
  Anxiety: 50.0%
  Feeling Drunk: 85.7%
  Hypoesthesia: 40.0%
  Lethargy: 0%
  Vomiting: 0%
[3]
  Clinician-reported dissociation: 8.8%
  Clinician-reported increased blood pressure: 2.2%
  Clinician-reported sedation: 2.5%
  Dizziness: 8.1%
  Nausea: 6.7%
  Vertigo: 5.0%
[4]
  Clinician-reported dissociation: 17.1%
  Clinician-reported increased blood pressure: 4.4%
  Clinician-reported sedation: 3.9%
  Dizziness: 21.1%
  Nausea: 14.3%
  Vertigo: 12.4%
Weeks 2-4, AE once in Week 1
  Clinician-reported dissociation: 48.2%
  Clinician-reported increased blood pressure: 56.5%
  Clinician-reported sedation: 36.8%
  Dizziness: 51.9%
  Nausea: 28.6%
  Vertigo: 67.4%
Weeks 2-4, AE twice in Week 1
  Clinician-reported dissociation: 86.5%
  Clinician-reported increased blood pressure: 77.8%
  Clinician-reported sedation: 70.6%
  Dizziness: 86.4%
  Nausea: 61.9%
  Vertigo: 90.3%
Weeks 2-4, No AE in Week 1
  Clinician-reported dissociation: 5.6% and 5.7%
  Clinician-reported increased blood pressure: 2.4%
  Clinician-reported sedation: 2.1%
  Dizziness: 6.3%
  Nausea: 5.3%
  Vertigo: 5.5%
Weeks 2-4, None in Week 1
  Anxiety: 1.3%
  Feeling Drunk: 0.4%
  Hypoesthesia: 3.7%
  Lethargy: 1.0%
  Vomiting: 2.4%
Weeks 2-4, Once in Week 1
  Anxiety: 11.8%
  Feeling Drunk: 30.8%
  Hypoesthesia: 54.3%
  Lethargy: 71.4%
  Vomiting: 31.0%
Weeks 2-4, Overall
  Anxiety: 1.7%
  Feeling Drunk: 1.9%
  Hypoesthesia: 7.2%
  Lethargy: 1.5%
  Vomiting: 3.3%
Weeks 2-4, Twice in Week 1
  Anxiety: 100%
  Feeling Drunk: 90.9%
  Hypoesthesia: 76.2%
  Lethargy: 0%
  Vomiting: 0%
[5]
  Clinician-reported dissociation: 16.1%
  Clinician-reported increased blood pressure: 5.2%
  Clinician-reported sedation: 4.1%
  Dizziness: 19.2%
  Nausea: 9.4%
  Vertigo: 15.0%
Weeks 5-8, AE once in Week 1
  Clinician-reported dissociation: 29.8%
  Clinician-reported increased blood pressure: 40.9%
  Clinician-reported sedation: 22.2%
  Dizziness: 30.8%
  Nausea: 16.1%
  Vertigo: 45.2%
Weeks 5-8, AE twice in Week 1
  Clinician-reported dissociation: 60.0%
  Clinician-reported increased blood pressure: 55.6%
  Clinician-reported sedation: 52.9%
  Dizziness: 62.5%
  Nausea: 30.0%
  Vertigo: 67.6%
Weeks 5-8, No AE in Week 1
  Clinician-reported dissociation: 6.1%
  Clinician-reported increased blood pressure: 1.9%
  Clinician-reported sedation: 1.2%
  Dizziness: 3.7%
  Nausea: 1.7%
  Vertigo: 3.0%
Weeks 5-8, None in Week 1
  Anxiety: 0.8%
  Feeling Drunk: 0.1%
  Hypoesthesia: 1.6%
  Lethargy: 1.1%
  Vomiting: 1.5%
Weeks 5-8, Once in Week 1
  Anxiety: 5.9%
  Feeling Drunk: 16.7%
  Hypoesthesia: 20.7%
  Lethargy: 40.0%
  Vomiting: 21.1%
Weeks 5-8, Overall
  Anxiety: 1.0%
  Feeling Drunk: 1.6%
  Hypoesthesia: 3.4%
  Lethargy: 1.2%
  Vomiting: 1.8%
Weeks 5-8, Twice in Week 1
  Anxiety: 50.0%
  Feeling Drunk: 90.9%
  Hypoesthesia: 58.3%
  Lethargy: 0%
  Vomiting: 0%
[6]
  Clinician-reported dissociation: 12.6%
  Clinician-reported increased blood pressure: 3.9%
  Clinician-reported sedation: 2.6%
  Dizziness: 12.5%
  Nausea: 4.0%
  Vertigo: 9.9%
All subsequent postdose monitoring periods, no increased blood pressure in week 1
  increased blood pressure reported: < 4%
Dissociation twice in week 1
  dissociation as an AE into months 3-6: > 50%
Dizziness not reported in week 1 (exception)
  dizziness at 3-6 months: 11.6%
[7]
  patients who did not have increased blood pressure during week 1: 95.7%
  patients who did not report dissociation during week 1: 83.2%
  patients who did not report nausea during week 1: 86.0%
Most pronounced with dissociation and dizziness
  impact of dose (56 or 84 mg modal dose) on AE recurrence: small dose effect
Remainder of induction period, no dissociation in week 1
  dissociation occurred: < 10%
Subsequent postdose monitoring periods, no nausea in week 1
  nausea reported: < 6%
